Data: article PMC7979765, “trans-Translation inhibitors bind to a novel site on the ribosome and clear Neisseria gonorrhoeae in vivo” (Nature Communications, 2021)
In brackets after ≈: the same amount, converted by molar mass. Several values for one entry are separate records, joined by “and”; a condition that tells them apart may be missing. Equal entries are not always repeated.

How the values were obtained:
[1] = system: trans-translation; assay: In vitro trans-translation assay (S12 extract, nanoluc-ns, tmRNA-nl); type: biochemical, Escherichia coli; details: in vitro reconstituted assay
From the text: The in vitro trans-translation assay is designed to produce the first 157 amino acids of nano-luciferase from a non-stop mRNA (nanoluc-ns) and add the C-terminal peptide […] via a mutant version of E. coli tmRNA (tmRNA-nl) to reconstitute an active nano-luciferase[45]. In this assay, the tagged nano-luciferase gene has >30,000-fold increase in activity over the peptide made in the absence of tmRNA-nl.
S12 lysates were made according to the procedure of Kim, et al.[46]. Briefly, a culture of E. coli BL21 (DE3) cells containing a pET28 plasmid carrying the E. coli T7 polymerase gene was grown at 37 °C to an OD600 = 0.8, induced with 1 mM IPTG and grown for an additional 3 h. Cells were harvested by centrifugation at 20,000 × g for 10 min at 4 °C and the pellet was resuspended in buffer A (20 mM Tris-acetate (pH 8.2), 14 mM Mg(OAc)2, 60 mM potassium glutamate, 1 mM DTT). Cells were lysed by sonication, the lysate was clarified by centrifugation at 12,000 × g for 10 min, and the supernatant was stored at −80 °C.
E. coli SmpB was purified as previously described. tmRNA-nl, a variant of E. coli tmRNA encoding the final 11 residues of nano-luciferase, was transcribed from the tmRNA-nl synthetic DNA sequence in vitro, purified, and folded as previously described for wild-type E. coli tmRNA[3]. The nanoluc-stop template DNA was prepared as previously described[3] by PCR amplification from pMC1 using T7 universal and nanoluc-stop primers. The nanoluc-ns was prepared in a similar manner using pMC1 with T7 universal and nanoluc-ns primers.
For in vitro trans-translation, tmRNA-nl and SmpB were premixed and stored on ice. S12 lysate (2 μl), freshly made polymix buffer (2 μl)[47] (final reaction concentrations 5 mM Hepes pH 7.6, 5 mM NH4Cl, 0.5 mM CaCl2, 1.5 mm MgCl2, 1 mM DTT, 8 mm putrescene, 2 mm ATP, 2 mM GTP, 1 mM CTP, 1 mM UTP, 0.3 mM each amino acid, 3 mg/ml E. coli tRNAs), nanoluc-ns template (0.5 μl; 60 ng) and 2 µl water were mixed and incubated at 37 °C for 5 min. This solution was dispensed to tubes containing 0.5 μl of different concentrations of an inhibitor prepared in 75% acetonitrile, 25% water, and incubated at 37 °C for 5 min. The tmRNA-nl/SmpB mixture (0.5 μl each, 2 μM final) was added to each tube and the samples were incubated at 37 °C for 1.5 h. NanoLuc substrate (Promega) was prepared according to the manufacturer’s instructions, one volume of this substrate solution was added to each sample tube, and the reactions transferred to a white 96-well plate. Luminescence readings were obtained using the SpectraMax i3 microplate reader. Data analysis was performed using GraphPad Prism 8.

[2] = Solubility (formulated); type: physicochemical
[3] = system: trans-translation; assay: microbe, parasite or virus in culture; type: cell-based, Escherichia coli; details: for Luminescence readout (Envision plate reader) / Luminescence, background subtracted (DMSO control): per replicate
Procedure: To verify that MBX-4132 retains activity as an inhibitor of trans-translation, we measured its dose-dependent activity against the non-stop luciferase reporter assay strain E. coli SB75 ΔtolC::kan (pluc-trpAt) essentially as described, with modifications. Briefly, serial 1.5-fold dilutions of MBX-4132 in DMSO were transferred to 96-well assay plates (Costar 3195), followed by the addition of 50 µl of an overnight culture of SB75 ΔtolC::kan (pluc-trpAt) that had been diluted to a final OD600 of 0.4 with LB media supplemented with 100 µg ampicillin/ml and 1 mM IPTG. […] The assay plates were incubated at room temperature for 2 h, and 50 µl of BrightGlo (Promega) bioluminescence reagent was added to each well. After 10 min incubation, bioluminescence intensity was measured using an Envision multi-label plate reader (Perkin Elmer). Each assay comprised three technical replicates, and the experiment was repeated three times. The fold induction for each MBX-4132 treated sample as compared to the DMSO-only sample was calculated for each technical replicate, and the average and standard deviation of the three technical was calculated. The IC50 was determined using a 4-parameter nonlinear curve fitting algorithm (GraphPad Prism).

[4] = Serum protein binding, murine; type: in vitro ADME, mouse; details: mouse, serum, murine serum; read-out: murine serum binding (% bound)
Procedure: Serum protein binding was determined using an equilibrium dialysis method as described. The amount of compound in each chamber (buffer and serum) was measured using methods for reverse-phase liquid chromatography/mass spectroscopy methods that were customized for each compound.

[5] = system: HeLa cells; assay: Mammalian cell cytotoxicity (CC50); type: cell-based, human; details: listed as MBX-3535; for NORMALIZED DATA (Fraction DMSO Control): HeLa, replicates
Procedure: (§1) The half maximal cytotoxic concentration (CC50) of each compound against HeLa cells (ATCC CCL-2) was measured as previously described. […] The mean values for each biological replicate were averaged, and the CC50 was determined using a 4-parameter nonlinear curve fitting algorithm (GraphPad Prism). The average of the CC50s from two biological replicates was calculated and reported.

[6] = Mammalian cell cytotoxicity (CC50); type: cell-based, human; details: human, HeLa cells (ATCC CCL-2)
Procedure: as §1

[7] = [Compound] 0.0625 µM, listed as MBX-3535
[8] = [Compound] 0.125 µM, listed as MBX-3535
[9] = [Compound] 0.1875 µM, listed as MBX-3535
[10] = [Compound] 0.25 µM, listed as MBX-3535
[11] = [Compound] 0.375 µM, listed as MBX-3535
[12] = [Compound] 0.5 µM, listed as MBX-3535
[13] = [Compound] 0.75 µM, listed as MBX-3535
[14] = [Compound] 1 µM, listed as MBX-3535
[15] = [Compound] 1.5 µM, listed as MBX-3535
[16] = HeLa cytotoxicity, one value per replicate

## O=C(Nc1nnc(-c2ccc(F)cc2)o1)c1ccc(Cl)cc1 [KKL-35, 4-chloro-N-(5-(4-fluorophenyl)-1,3,4-oxadiazol-2-yl)benzamide]
[1]
  IC50: 0.4 µM
[2]
  Solubility: 1000 µg/mL (≈ 3.15 mM)
[3]; Eco Luc reporter, one value per replicate, listed as MBX-3535, read-out: IC50
  IC50: 0.138 µM and 0.151 µM
[3]; Escherichia coli, E. coli non-stop luciferase reporter, Fig. 1B, read-out: in vivo luc-trpAt IC50
  IC50: 0.1 µM
[3]; Escherichia coli, Eco Luc reporter, one value per replicate, read-out: IC50
  IC50: 0.156 µM
[3]; [Compound] 0.046875 µM, listed as MBX-3535
  Luminescence readout (Envision plate reader): 793720 and 792160 and 789800
[3]; [7]
  Luminescence readout (Envision plate reader): 778080 and 758560 and 769120
  Luminescence, background subtracted (DMSO control): -25080 and -11160 and -10320
[3]; [Compound] 0.09375 µM, listed as MBX-3535
  Luminescence readout (Envision plate reader): 796160 and 783440 and 809640
[3]; [8]
  Luminescence readout (Envision plate reader): 838680 and 824680 and 839280
  Luminescence, background subtracted (DMSO control): 35520 and 54960 and 59840
[3]; [9]
  Luminescence readout (Envision plate reader): 931120 and 911280 and 917880
  Luminescence, background subtracted (DMSO control): 127960 and 141560 and 138440
[3]; [10]
  Luminescence readout (Envision plate reader): 975560 and 925440 and 953800
  Luminescence, background subtracted (DMSO control): 172400 and 155720 and 174360
[3]; [11]
  Luminescence readout (Envision plate reader): 918760 and 868800 and 899520
  Luminescence, background subtracted (DMSO control): 115600 and 99080 and 120080
[3]; [12]
  Luminescence readout (Envision plate reader): 894760 and 832920 and 864960
  Luminescence, background subtracted (DMSO control): 91600 and 63200 and 85520
[3]; [13]
  Luminescence readout (Envision plate reader): 938080 and 885720 and 902440
  Luminescence, background subtracted (DMSO control): 134920 and 116000 and 123000
[3]; [14]
  Luminescence readout (Envision plate reader): 1090520 and 985400 and 1035440
  Luminescence, background subtracted (DMSO control): 287360 and 215680 and 256000
[3]; [15]
  Luminescence readout (Envision plate reader): 1101720 and 996520 and 1037480
  Luminescence, background subtracted (DMSO control): 298560 and 226800 and 258040
[4]
  fraction unbound: < 0.01
[5]; [16]
  CC50: 30.6 µM and 26 µM and 22 µM and 29.1 µM and 34.1 µM
[5]; [CMPD] 0.78125 µM
  NORMALIZED DATA (Fraction DMSO Control): 0.9983 Fraction DMSO Control and 0.9009 Fraction DMSO Control and 0.8841 Fraction DMSO Control and 1.049 Fraction DMSO Control and 0.992 Fraction DMSO Control and 0.9968 Fraction DMSO Control
[5]; [CMPD] 1.5625 µM
  NORMALIZED DATA (Fraction DMSO Control): 0.9916 Fraction DMSO Control and 0.9029 Fraction DMSO Control and 0.888 Fraction DMSO Control and 1.05 Fraction DMSO Control and 0.9984 Fraction DMSO Control and 0.9932 Fraction DMSO Control
[5]; [CMPD] 3.125 µM
  NORMALIZED DATA (Fraction DMSO Control): 0.9963 Fraction DMSO Control and 0.9267 Fraction DMSO Control and 0.8661 Fraction DMSO Control and 1.071 Fraction DMSO Control and 1.023 Fraction DMSO Control and 1.002 Fraction DMSO Control
[5]; [CMPD] 6.25 µM
  NORMALIZED DATA (Fraction DMSO Control): 1.002 Fraction DMSO Control and 0.9334 Fraction DMSO Control and 0.856 Fraction DMSO Control and 1.09 Fraction DMSO Control and 1.008 Fraction DMSO Control and 1.022 Fraction DMSO Control
[5]; [CMPD] 12.5 µM
  NORMALIZED DATA (Fraction DMSO Control): 0.9694 Fraction DMSO Control and 0.9248 Fraction DMSO Control and 0.8736 Fraction DMSO Control and 1.069 Fraction DMSO Control and 1.012 Fraction DMSO Control and 1.014 Fraction DMSO Control
[5]; [CMPD] 25 µM
  NORMALIZED DATA (Fraction DMSO Control): 0.8994 Fraction DMSO Control and 0.8509 Fraction DMSO Control and 0.795 Fraction DMSO Control and 0.4926 Fraction DMSO Control and 0.6416 Fraction DMSO Control and 0.799 Fraction DMSO Control
[5]; [CMPD] 50 µM
  NORMALIZED DATA (Fraction DMSO Control): 0.6292 Fraction DMSO Control and 0.6178 Fraction DMSO Control and 0.5987 Fraction DMSO Control and 0.3592 Fraction DMSO Control and 0.3855 Fraction DMSO Control and 0.3659 Fraction DMSO Control
[5]; [CMPD] 100 µM
  NORMALIZED DATA (Fraction DMSO Control): 0.6116 Fraction DMSO Control and 0.6041 Fraction DMSO Control and 0.6139 Fraction DMSO Control and 0.191 Fraction DMSO Control and 0.1882 Fraction DMSO Control and 0.2089 Fraction DMSO Control
[6]; [16]
  CC50: 30.5 µM
[6]; half-maximal cytotoxic concentration against HeLa cells
  CC50: > 100 µM
